# Results reported in patent US20150315218A1, “SALTS OF PRODRUGS OF PIPERAZINE AND SUBSTITUTED PIPERIDINE ANTIVIRAL AGENTS” (Bristol-Myers Squibb Company, priority 2004, published 2015).
# Where “and” joins values, the source holds several entries; their conditions need not be identical. Equal entries are not always repeated. Structures can show the parent of a compound that is named as a salt.
# Columns and labels:
# [1] = Stability (hydrolysis) of prodrug in fresh serum (human); conditions: for Ibb: Ibb in fresh human serum, 37° C., n = 2; for Iab / IVa Formed: Human Serum
# dog hepatocytes = assay: Hydrolysis of prodrug in hepatocytes (dog); format: in vitro ADME; conditions: dog hepatocytes, qualitative
# Experimental: (§1) The in vitro intrinsic clearance of Ibb in hepatocytes (Clint) was calculated as follows: Clint(μL/min/million cells)=Rate/CE where Rate is the rate of metabolism in hepatocytes (pmol/min/million cells), and CE is the concentration of Ibb in the incubation. The in vitro intrinsic clearance of Icb in hepatocytes (Clint) was calculated as follows: Clint(μL/min/million cells)=Rate/CE where Rate is the rate of metabolism in hepatocytes (pmol/min/million cells), and CE is the concentration of Icb in the incubation.
# in vitro [2] = conditions: dog, serum
# Experimental: (§2) The stability of Iab was studied in fresh blood and serum from rat, dog, monkey and human (n=2). The blood was collected in vacutainers containing K2EDTA (Becton Dickinson, Franklin Lakes, N.J.). The serum was collected in vacutainers containing no anticoagulant. Iab was incubated at a starting concentration of approximately 10 μM for 60-90 min at 37° C. Serial samples were taken at the pre-determined times. Aliquots of blood samples (200 μL) were first mixed with 100 μL of water followed by 400 μL of acetonitrile. The serum samples (50 μL) were added into microtainers containing K2EDTA (Becton Dickinson, Franklin Lakes, N.J.) followed by the addition of 100 μL of acetonitrile. The supernatant was analyzed for both Iab and IVa by LC/MS/MS. The stability of Ibb was studied in fresh blood and serum from rat, dog, monkey and human (n=2). The blood was collected in vacutainers containing K2EDTA (Becton Dickinson, Franklin Lakes, N.J.). The serum was collected in vacutainers containing no anticoagulant. Ibb was incubated at a starting concentration of approximately 15 μM for 90 min at 37° C. Serial samples were taken at the pre-determined times. Aliquots of blood samples (200 μL) were first mixed with 100 μL of water followed by 400 μL of acetonitrile. The serum samples (50 μL) were added into microtainers containing K2EDTA (Becton Dickinson, Franklin Lakes, N.J.) followed by the addition of 100 μL of acetonitrile. […] The stability of Icb was studied in fresh blood and serum from rat, dog, monkey and human (n=2). The blood was collected in vacutainers containing K2EDTA (Becton Dickinson, Franklin Lakes, N.J.). The serum was collected in vacutainers containing no anticoagulant. Icb was incubated at a starting concentration of approximately 10 μM for 90 min at 37° C. Serial samples were taken at the pre-determined times. Aliquots of blood samples (200 μL) were first mixed with 100 μL of water followed by 400 μL of acetonitrile. The serum samples (50 μL) were added into microtainers containing K2EDTA (Becton Dickinson, Franklin Lakes, N.J.) followed by the addition of 100 μL of acetonitrile.
# monkey hepatocytes = assay: Hydrolysis of prodrug in hepatocytes (monkey); format: in vitro ADME; conditions: monkey hepatocytes, qualitative
# Experimental: as §1
# [3] = Stability of prodrug in fresh EDTA blood (dog); conditions: for Ibb: Ibb in fresh dog EDTA blood, 37° C., n = 2; for conversion of prodrug to parent in blood containing EDTA: dog blood, 37°C, 60 min (Iab) or 90 min (Ibb, Icb)
# Experimental: as §2
# [4] = Stability of prodrug in fresh EDTA blood (monkey); conditions: for Ibb: Ibb in fresh monkey EDTA blood, 37° C., n = 2; for Iab / IVa Formed: Monkey EDTA blood
# Experimental: as §2
# [5] = Stability of prodrug in fresh EDTA blood (rat); conditions: for Ibb: Ibb in fresh rat EDTA blood, 37° C., n = 2; for conversion of prodrug to parent in blood containing EDTA: rat blood, 60 min (Iab) or 90 min (Ibb, Icb); for Iab / IVa Formed: Rat EDTA blood
# Experimental: as §2
# [6] = Stability (hydrolysis) of prodrug in fresh serum (monkey); conditions: for Ibb: Ibb in fresh monkey serum, 37° C., n = 2; for Iab / IVa Formed: Monkey Serum
# Experimental: as §2
# physchem = conditions: thermodynamic from solid
# in vitro [7] = conditions: monkey, serum
# Experimental: as §2
# rat hepatocytes = assay: Hydrolysis of prodrug in hepatocytes (rat); format: in vitro ADME; conditions: rat hepatocytes, qualitative
# Experimental: as §1
# [8] = Stability of prodrug in Tris-HCl buffer; conditions: for stability / conversion of prodrug to parent in Tris-HCl buffer: 60 min (Iab) or 90 min (Ibb, Icb); for Ibb: Ibb in Tris-HCl buffer, 37° C., n = 2
# Experimental: The stability of Iab was also evaluated, as described above, in Tris-HCl buffer (0.1 M, pH 7.5). The stability of Ibb was also evaluated, as described above, in Tris-HCl buffer (0.1 M, pH 7.5). The stability of Icb was also evaluated, as described above, in Tris-HCl buffer (0.1 M, pH 7.5).
# [9] = Stability (hydrolysis) of prodrug in fresh serum (dog); conditions: for Ibb: Ibb in fresh dog serum, 37° C., n = 2; for Iab / IVa Formed: Dog Serum
# Experimental: as §2
structure (smiles),measurement,setting,value
"O=C(C(=O)N1CCN(C(=O)c2ccccc2)CC1)c1cn(COP(=O)(O)O)c2c(-n3ccnn3)ncc(F)c12 [Ibb, [3-[(4-benzoylpiperazin-1-yl)(oxo)acetyl]-4-fluoro-7-(1H-1,2,3-triazol-1-yl)-1H-pyrrolo[2,3-c]pyridin-1-yl]methyl dihydrogen phosphate, L-lysine salt (1:1)]",Ibb,[1]; 0 min,13 µM
same,Ibb,[1]; 15 min,9.0 µM
same,Ibb,[1]; 30 min,10 µM
same,Ibb,[1]; 45 min,10 µM
same,Ibb,[1]; 60 min,8.0 µM
same,Ibb,[1]; 90 min,6.5 µM
same,hydrolysis in the presence of hepatocytes,dog hepatocytes,hydrolyzed
same,half-life at 15 μM,in vitro [2],2.78 h
same,hydrolysis in the presence of hepatocytes,monkey hepatocytes,No turnover was observed
same,Ibb,[3]; 0 min,13 µM
same,Ibb,[3]; 15 min,12 µM
same,Ibb,[3]; 30 min,15 µM
same,Ibb,[3]; 45 min,16 µM
same,Ibb,[3]; 60 min,13 µM
same,Ibb,[3]; 90 min,16 µM
same,conversion of prodrug to parent in blood containing EDTA,[3],< 2%
same,Ibb,[4]; 0 min,16 µM
same,Ibb,[4]; 15 min,19 µM
same,Ibb,[4]; 30 min,18 µM
same,Ibb,[4]; 45 min,18 µM
same,Ibb,[4]; 60 min,19 µM
same,Ibb,[4]; 90 min,17 µM
same,conversion of prodrug to parent in blood containing EDTA,"[4]; monkey blood, 37°C, 60 min (Iab) or 90 min (Ibb, Icb)",< 2%
same,Ibb,[5]; 0 min,15 µM
same,Ibb,[5]; 15 min,15 µM
same,Ibb,[5]; 30 min,18 µM
same,Ibb,[5]; 45 min,15 µM
same,Ibb,[5]; 60 min,16 µM
same,Ibb,[5]; 90 min,17 µM
same,conversion of prodrug to parent in blood containing EDTA,[5]; 37°C,< 2%
same,Ibb,[6]; 0 min,14 µM
same,Ibb,[6]; 15 min,6.6 µM
same,Ibb,[6]; 30 min,3.1 µM
same,Ibb,[6]; 45 min,1.7 µM
same,Ibb,[6]; 60 min,0.85 µM
same,Ibb,[6]; 90 min,0.22 µM
same,solubility,"physchem; aqueous solution (pH range 1.5 to 8.7), aqueous buffer",> 11000 µg/mL
same,half-life at 15 μM,in vitro [7],0.25 h
same,hydrolysis in the presence of hepatocytes,rat hepatocytes,hydrolyzed
same,stability / conversion of prodrug to parent in Tris-HCl buffer,[8]; 37°C,less than 2%
same,Ibb,[8]; 0 min,14 µM
same,Ibb,[8]; 15 min,12 µM
same,Ibb,[8]; 30 min,13 µM
same,Ibb,[8]; 45 min,12 µM
same,Ibb,[8]; 60 min,13 µM
same,Ibb,[8]; 90 min,12 µM
same,Ibb,[9]; 0 min,13 µM
same,Ibb,[9]; 15 min,12 µM
same,Ibb,[9]; 30 min,11 µM
same,Ibb,[9]; 45 min,10 µM
same,Ibb,[9]; 60 min,10 µM
same,Ibb,[9]; 90 min,8.9 µM
"COc1cnc(OC)c2c1c(C(=O)C(=O)N1CCN(C(=O)c3ccccc3)CC1)cn2COP(=O)(O)O [Iab, {3-[(4-benzoylpiperazin-1-yl)(oxo)acetyl]-4,7-dimethoxy-1H-pyrrolo[2,3-c]pyridin-1-yl}methyl dihydrogen phosphate, L-lysine salt (1:1)]",Iab / IVa Formed,"[1]; 37°C, 0 min",9.5 µM
same,Iab / IVa Formed,[1]; 15 min,9.2 µM
same,Iab / IVa Formed,[1]; 30 min,9.0 µM
same,Iab / IVa Formed,[1]; 45 min,9.6 µM
same,Iab / IVa Formed,[1]; 60 min,9.1 µM
same,Iab / IVa Formed,[1]; 90 min,9.4 µM
same,hydrolysis in the presence of hepatocytes,dog hepatocytes,hydrolyzed
same,half-life at 10 μM,in vitro [2],3.03 h
same,hydrolysis in the presence of hepatocytes,monkey hepatocytes,hydrolyzed
same,conversion of prodrug to parent in blood containing EDTA,[3],approximately 6%
same,Iab / IVa Formed,[4]; 0 min,8.5 µM
same,Iab / IVa Formed,[4]; 20 min,9.2 µM
same,Iab / IVa Formed,[4]; 40 min,9.2 µM
same,Iab / IVa Formed,[4]; 60 min,8.7 µM
same,Iab / IVa Formed,"[5]; 37°C, 0 min",8.0 µM
same,Iab / IVa Formed,[5]; 20 min,8.8 µM
same,Iab / IVa Formed,[5]; 40 min,10 µM
same,Iab / IVa Formed,[5]; 60 min,10 µM
same,conversion of prodrug to parent in blood containing EDTA,[5]; 37°C,< 2% and 1.2%
same,Iab / IVa Formed,"[6]; 37°C, 0 min",9.0 µM
same,Iab / IVa Formed,[6]; 15 min,7.3 µM
same,Iab / IVa Formed,[6]; 30 min,6.8 µM
same,Iab / IVa Formed,[6]; 45 min,6.5 µM
same,Iab / IVa Formed,[6]; 60 min,6.3 µM
same,Iab / IVa Formed,[6]; 90 min,6.3 µM
same,solubility,"physchem; aqueous solution, aqueous buffer",> 12000 µg/mL
same,solubility,"physchem; aqueous solution, pH 1.4, simulated gastric fluid",220 µg/mL
same,half-life at 10 μM,in vitro [7],6.08 h
same,hydrolysis in the presence of hepatocytes,rat hepatocytes,hydrolyzed
same,stability / conversion of prodrug to parent in Tris-HCl buffer,[8]; 37°C,stable
same,Iab / IVa Formed,"[8]; Tris-HCl buffer (0.1 M, pH 7.5), 37°C, 0 min",10 µM
same,Iab / IVa Formed,"[8]; Tris-HCl buffer, 20 min",10 µM
same,Iab / IVa Formed,"[8]; Tris-HCl buffer, 40 min",7.6 µM
same,Iab / IVa Formed,"[8]; Tris-HCl buffer, 60 min",10 µM
same,Iab / IVa Formed,"[9]; 37°C, 0 min",9.2 µM
same,Iab / IVa Formed,[9]; 15 min,9.0 µM
same,Iab / IVa Formed,[9]; 30 min,7.8 µM
same,Iab / IVa Formed,[9]; 45 min,7.8 µM
same,Iab / IVa Formed,[9]; 60 min,7.1 µM
same,Iab / IVa Formed,[9]; 90 min,6.7 µM
